# Laboratory results from patent US7728146B2, “Enzyme inhibitors” (Probiodrug AG, priority 2006, dated 2010).
# Experiments:
# [1] = molecular target: T1, DP IV (Homo sapiens, UniProt P27487); experiment: DP IV inhibition IC50, parallel-synthesis compounds tested directly following synthesis (without purification); assay type: biochemical; parameters: IC50 DP4; other: tested directly following parallel synthesis, without purification; compounds of formula (Ib) from parallel synthesis, tested directly following synthesis; details: DP IV inhibition; compounds of formula (Ib) from parallel synthesis, tested directly following synthesis (without purification); read-out: IC50
# How it was run: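 IC50 came from a 4-parameter fit of residual activity (linear 405 nm slopes for pNA release over ~18 min, relative to solvent-only wells). Gly-Pro-pNA was the substrate, cleaved by porcine kidney or recombinant human DP IV at room temperature in HEPES with 5% DMSO; duplicate 1:2 series started at 100 μM final.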
# [2] = molecular target: dipeptidyl peptidase (DP IV) (UniProt P27487); experiment: Determination of IC50 against DP IV (hydrolysis of Gly-Pro-pNA); assay type: biochemical, porcine kidney or recombinant human; details: compounds obtained by preparative synthesis
# Description: Determination of IC50 Against DP IV
# Substances are screened for inhibition of dipeptidyl peptidase (DP IV) by their ability to inhibit the hydrolysis of the DP IV specific substrate Glycyl-Prolyl-4-Nitroanilide (Gly-Pro-pNA). All compounds are diluted in DMSO and IC50 will be determined with 11 serial dilutions (1:2) starting with an final concentration of 100 μM. The final DMSO concentration in the assay is 5% (v/v). The method was automated using a Tecan Genesis Freedom liquid handler and a Genius Pro (Tecan) microplate reader.
# A stock solution of 0.102 M HEPES is prepared. Ionic strength (I=0.32) is adjusted by KCl and pH (pH 7.6) by KOH.
# 2.16 mM solution of Gly-Pro-pNA in deionized water is prepared.
# All samples are dissolved in DMSO preparing a 10 mM stock solution.
# DP IV from porcine kidney (pDP IV) or recombinant human DP IV (rhDP IV) is diluted in HEPES buffer to a final activity of approximately 40-50 μU*ml^−1. The DP IV is stored in a cooling rack (4° C.) on the liquid handler.
# The assay may becarried out at room temperature using Freedom liquid handler connected with a Genios Pro microplate reader. Each sample is measured in duplicate. Each sample stock solution is prediluted with DMSO in a ratio of 1:5 in a polypropylen 96-well plate. From this predilution 10 serial (1:2) dilutions in DMSO are prepared. 13.5 μl of the 11 DMSO dilutions and DMSO alone are transferred to the measurement microplate (duplicates) and 86.5 μl water, 100 μl HEPES buffer and 50 μl substrate solution are added to each well. The enzymatic reaction is started by addition of 20 μl enzyme solution to each well, and then the microplate is immediately transferred to the microplate reader.
# After short mixing (20 s) the release of 4-Nitroanilin (pNA) is monitored at 405 nm for 30 cycles (approx. 18 min).
# Post assay calculations are done by the Magellan (Tecan) and Graphit Software. The linear slopes are calculated for each well and averaged for the duplicates. The residue activities are calculated in relation to a sample containing only solvent instead of inhibitor and expressed in %. Residue activities are plotted against the log of inhibitor concentrations and IC50 is calculated by an 4-parameter fitting ranging from 0 to 100%.
# [3] = molecular target: DP9 (Homo sapiens, UniProt Q86TI2); experiment: DP9 assay; assay type: biochemical; details: for IC50: Gly Pro-AMC 0.25 mM; for Selectivity DP9(IC50)/DPIV(Ki): ratio IC50 DP9 / Ki DP IV
# Description: (§1) Determination of IC50 values for DPII and DP9 are done similarly as described for DP IV.
# For DP9 Gly Pro-AMC is used as substrate in a final concentration of 0.25 mM.
# [4] = system: liver cell carcinoma cell line Hep-G2; experiment: Cytotoxicity screening and LD50 determination on Hep-G2 (LDH, CytoTox-One); assay type: cell-based; details: for LD50 Viability HEP-G2 / LD50 cytotox HEP-G2: 8 serial dilutions, highest concentration 1 mM; for Cytotox 100 μM (%) HEPG2 / Viability 100 μM (%) HEP-G2: 24 h; for Cytotox 100 μM (%) HEPG2: LDH activity in cell culture media, lysed untreated cells = 100%; for Viability 100 μM (%) HEP-G2: LDH of lysed cells, untreated control = 100%
# Description: Cytotoxicity of the compounds may be screened using the liver cell carcinoma cell line Hep-G2.
# (§2) After 24 h of cultivation in a 96 well plate (50 000 cells/well) compounds (dissolved in DMSO) are added and cytotoxicity and vitality of the cells are analysed after another 24 h of cultivation using the CytoTox-One Homogenoeous membrane toxicity assay (Promega).
# Three concentrations (100 μM, 2 μM, 40 nM) of each compound are analysed in triplicates. The final DMSO concentration was 1%.
# (§3) For cytotoxicity the LDH activity in the cell culture media after 24 h of incubation are analysed. The untreated control is set to 0% cytotoxicity. For the 100% value LDH activity of lysed untreated cells are analysed.
# (§4) For viability cell culture media are removed from the cells and all cells are lysed using the lysis buffer. LDH activity is determined and untreated control is set to 100% viability.
# (§5) For determination of LD50 the liver carcinoma cell line HEP-G2 and the neuroblastoma cell line SY5Y may be used. The effect of 8 serial dilutions of the compounds (highest concentration 1 mM) is investigated as described above.
# The cytotoxicity of certain example compounds (in each case prepared by preparative synthesis) was screened using Hep-G2 cells. Compounds were tested in concentrations of 100 μM, 2 μM and 40 nM.
# [5] = system: neuroblastoma cell line SY5Y; experiment: LD50 determination on SY5Y (LDH); assay type: cell-based; details: 8 serial dilutions, highest concentration 1 mM
# Description: as §2, §3, §4, §5
# [6] = Caco-2 transport assay; assay type: in vitro ADME, human; details: human, Caco-2, pH 7.5; for Papp A→B: apical to basal; for Papp B→A: basal to apical
# Description: (§6) The concentration of compounds in the Caco experiments may be determined from their potency to inhibit recombinant human DP IV.
# (§7) Reaction is started by addition of 20 μl rhDP IV and release of pNA was monitored at 405 nm. Samples are analyzed in several dilutions (undiluted, 1:10, 1:[…]). Dilutions are done in the Caco assay buffer. Activity measured with Caco-assay buffer alone is set to 100% and inhibitor concentration is calculated from the dilutions resulting in 20 to 80% inhibition according to the equation for competitive inhibition.
# (§8) [formula] • I=inhibitor concentration • v0=velocity of the reaction without inhibitor (Caco assay buffer alone) • vi=velocity of the reaction with inhibitor sample • Ki=Ki-value of the compound • DF=dilution factor of the sample Transport Assay
# (§9) The human colon adenocarcinome cell line Caco-2 are grown in 6- or 24-transwell microplates (Costar) for 21 days with MEM-alpha containing 10% FBS and 0.5% Gentamycin (Invitrogen). After 21 days of cultivation integrity of the cell layer are assessed by measurement of the transepitelial electrical resistance.
# (§10) Transport measurements are carried out in triplicates at a pH of 7.5. For each compound and direction (apical to basal (a-b), basal to apical (b-a)) two separate experiments are done. Samples are collected from the donor and acceptor compartments at the beginning of the experiment and after 60 min (for 6-well plates, Donor at 0 and 120 min, Acceptor at 15, 30, 60 and 120 min).
# (§11) Samples are analyzed in several dilutions for their ability to inhibit human recombinant DP IV and compound concentrations may be calculated using the prior determined Ki-value (see above).
# (§12) The permeability coefficient Papp is calculated according to the following equation:
# (§13) [formula] • VA=Volume of the acceptor compartment • A=Area of the transwell membrane • t=sampling time • cAt=concentration in the acceptor compartment at sampling time • CDO=concentration in the donor compartment at t=0
# (§14) Papp-values>1e-5 cm/s are assessed as good permeable, value<1e-6 cm/s as not permeable. Papp-values in between as medium permeable. Compounds where no significant difference were found between a-b and b-a transport are assessed to be passive transported.
# [7] = system: Caco-2 monolayer; experiment: Caco-2 transport assay; assay type: in vitro ADME, human; details: assessment of permeability and transport type
# Description: as §6, §7, §8, §9, §10, §11, §12, §13, §14
# [8] = molecular target: DPII (Homo sapiens, UniProt Q9UHL4); experiment: DPII assay; assay type: biochemical; details: for Selectivity DPII(IC50)/DPIV(Ki): ratio IC50 DPII / Ki DP IV; for IC50: sodium acetate buffer pH 5.5, Gly-Pro-AMC 1 mM
# Description: as §1
# For DPII instead of the HEPES buffer a 0.2 M sodium acetate buffer pH 5.5 is used. As substrate Gly-Pro-AMC is used in a final concentration of 1 mM.
# [9] = molecular target: T1, DP IV; experiment: Ki and inhibition type, DP IV; assay type: biochemical; details: compounds obtained by preparative synthesis
# Description: Measurement of DP IV activities for Ki determination is carried out as described for IC50. For Ki determination samples were analysed in triplicates. 7 serial dilutions of the inhibitor (range calculated from the IC50 determination) in water are analyzed with 4 serial dilutions of the substrate.
# Data are analysed by non-linear regression to the inhibitor equations using Graphit software. Ki-value and inhibition type are determined using the inhibitor equation (competitive, partiell competitive, non-competitive) which gives the best fitting results. […]
# [10] = solubility (dosing solution in saline); assay type: physicochemical; details: compounds were dissolved in saline for dosing
# Description: The animals were treated by a single oral dose of 3 mg/kg (5 mL/kg b.w.; treatment A) followed by a wash-out period of at least 3 days before intraarterial administration of 3 mg/kg (2 mL/kg b.w.; treatment B). The compounds were dissolved in saline to a final concentration adequate for an application of 3 mg/kg b.w.
# Chain of DP9 (Q86TI2 whole entry, species assumed): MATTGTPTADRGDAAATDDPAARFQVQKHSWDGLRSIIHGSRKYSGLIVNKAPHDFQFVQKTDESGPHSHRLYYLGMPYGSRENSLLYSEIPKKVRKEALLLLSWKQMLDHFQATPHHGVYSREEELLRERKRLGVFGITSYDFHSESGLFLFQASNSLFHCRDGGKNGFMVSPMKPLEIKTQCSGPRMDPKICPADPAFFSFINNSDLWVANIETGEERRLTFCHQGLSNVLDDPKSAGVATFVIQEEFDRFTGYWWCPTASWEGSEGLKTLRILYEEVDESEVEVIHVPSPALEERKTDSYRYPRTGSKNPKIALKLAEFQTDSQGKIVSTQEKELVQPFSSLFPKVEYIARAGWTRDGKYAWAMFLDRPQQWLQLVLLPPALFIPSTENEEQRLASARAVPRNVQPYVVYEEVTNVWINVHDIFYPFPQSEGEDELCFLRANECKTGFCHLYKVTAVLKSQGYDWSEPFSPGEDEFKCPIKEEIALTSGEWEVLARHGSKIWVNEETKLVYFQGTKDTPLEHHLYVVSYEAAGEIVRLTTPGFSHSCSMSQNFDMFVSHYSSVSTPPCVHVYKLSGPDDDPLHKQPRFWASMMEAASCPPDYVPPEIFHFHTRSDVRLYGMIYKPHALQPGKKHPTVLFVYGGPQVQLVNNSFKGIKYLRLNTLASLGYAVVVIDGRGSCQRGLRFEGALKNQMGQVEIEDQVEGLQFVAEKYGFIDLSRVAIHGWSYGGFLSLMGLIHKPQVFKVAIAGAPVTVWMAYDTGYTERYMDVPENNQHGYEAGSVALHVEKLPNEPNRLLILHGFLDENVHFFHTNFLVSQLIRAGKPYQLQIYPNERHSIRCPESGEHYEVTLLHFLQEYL
# T1 sequence (P27487 whole entry): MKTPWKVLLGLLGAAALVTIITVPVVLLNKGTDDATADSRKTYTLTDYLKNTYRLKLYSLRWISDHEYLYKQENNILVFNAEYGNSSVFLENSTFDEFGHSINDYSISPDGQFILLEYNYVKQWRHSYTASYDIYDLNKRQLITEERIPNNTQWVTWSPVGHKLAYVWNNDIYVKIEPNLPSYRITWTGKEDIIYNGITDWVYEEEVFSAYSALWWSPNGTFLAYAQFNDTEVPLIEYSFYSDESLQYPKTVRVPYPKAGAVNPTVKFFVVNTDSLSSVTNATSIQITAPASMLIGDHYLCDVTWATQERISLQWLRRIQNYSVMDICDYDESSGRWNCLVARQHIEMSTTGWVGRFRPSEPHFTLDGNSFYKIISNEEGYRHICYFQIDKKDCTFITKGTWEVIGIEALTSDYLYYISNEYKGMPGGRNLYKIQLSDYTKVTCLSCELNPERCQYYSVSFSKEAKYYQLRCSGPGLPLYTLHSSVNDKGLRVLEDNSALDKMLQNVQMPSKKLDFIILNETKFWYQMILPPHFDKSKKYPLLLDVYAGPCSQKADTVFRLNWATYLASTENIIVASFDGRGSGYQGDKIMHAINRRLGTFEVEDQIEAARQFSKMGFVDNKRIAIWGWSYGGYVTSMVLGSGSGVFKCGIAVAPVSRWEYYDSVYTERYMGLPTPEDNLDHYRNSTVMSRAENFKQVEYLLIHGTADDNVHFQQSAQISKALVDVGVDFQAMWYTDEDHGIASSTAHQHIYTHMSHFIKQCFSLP
IC50 [1],IC50 [2],Ki [3],IC50 [3],Selectivity DP9(IC50)/DPIV(Ki) [3],Papp A→B [6],Papp B→A [6],Transport [7],Ki [8],Selectivity DPII(IC50)/DPIV(Ki) [8],IC50 [8],Ki [9],solubility [10],SMILES,LD50 Viability HEP-G2 [4],LD50 cytotox HEP-G2 [4],LD50 Viability SY5Y [5],LD50 cytotox SY5Y [5],Cytotox 100 μM (%) HEPG2 ([4]; 100 μM),Viability 100 μM (%) HEP-G2 ([4]; 100 μM),"Observed cytotox ([4]; 100 μM, Hep-G2, observation of the cells)"
1000 nM,139 nM,7650 nM,38300 nM,"1,964",41.9 ×10⁻⁶ cm/s,16 ×10⁻⁶ cm/s,"good, active in",2180 nM,383,7460 nM,19.5 nM,–,"NCc1c(-c2ccc(Cl)cc2Cl)ncn1Cc1ccccc1Cl [Example 81b, C-[3-(2-chloro-benzyl)-5-(2,4-dichloro-phenyl)-3H-imidazol-4-yl]-methylamine]",0.14 mM,0.12 mM,0.07 mM,0.16 mM,–,–,–
1900 nM,261 nM,–,59700 nM,"3,778",51.2 ×10⁻⁶ cm/s,52.8 ×10⁻⁶ cm/s,"good, passive",–,"1,177",18600 nM,15.8 nM,–,"COc1ccccc1Cn1cnc(-c2ccc(Cl)cc2Cl)c1CN [Example 120b, C-[5-(2,4-dichloro-phenyl)-3-(2-methoxy-benzyl)-3H-imidazol-4-yl]-methylamine]",0.21 mM,0.17 mM,0.10 mM,0.16 mM,11.6%,108.9%,50% spheric
–,54 nM,–,34300 nM,"5,419",45.1 ×10⁻⁶ cm/s,15 ×10⁻⁶ cm/s,"good, active in",1570 nM,540,3420 nM,6.33 nM,low solubility,"CCOc1ccccc1Cn1cnc(-c2ccc(Cl)cc2Cl)c1CN [Example 128b, (1-(2-ethoxybenzyl)-4-(2,4-dichlorophenyl)-1H-imidazol-5-yl)methanamine]",0.15 mM,0.14 mM,0.07 mM,0.15 mM,–,–,–

SMILES,IC50 [1],IC50 [2],Ki [3],IC50 [3],Selectivity DP9(IC50)/DPIV(Ki) [3],Papp A→B [6],Papp B→A [6],Transport [7],Ki [8],Selectivity DPII(IC50)/DPIV(Ki) [8],IC50 [8],Ki [9],solubility [10],LD50 Viability HEP-G2 [4],LD50 cytotox HEP-G2 [4],LD50 Viability SY5Y [5],LD50 cytotox SY5Y [5],Cytotox 100 μM (%) HEPG2 ([4]; 100 μM),Viability 100 μM (%) HEP-G2 ([4]; 100 μM),"Observed cytotox ([4]; 100 μM, Hep-G2, observation of the cells)"
"NCc1c(-c2ccc(Cl)cc2Cl)ncn1Cc1ccccc1F [Example 112b, C-[5-(2,4-dichloro-phenyl)-3-(2-fluoro-benzyl)-3H-imidazol-4-yl]-methylamine]",3700 nM,195 nM,–,–,"9,714",44.8 ×10⁻⁶ cm/s,42.1 ×10⁻⁶ cm/s,"good, passive",–,"3,514",36900 nM,10.5 nM,–,–,–,–,–,3.0%,111.4%,–
